Data set [1] in a line: retention time on BEH HILIC column (20 min gradient, 0.4 mL/min); higher = later elution. The note with it: LC: HILIC. The method, then: (§1)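 Reference standards (20-100 uM) were separated by HILIC UPLC (BEH HILIC, 45 °C): acidic pH 3.0 ammonium formate/formic acid for ESI+ and basic pH 9.0 ammonium acetate/ammonia for ESI-. They were analysed on a Synapt G2-Si traveling-wave IMS-QTOF with nitrogen drift gas (WH 30 V; WV 800 m/s in ESI+ and 1000 m/s in ESI-).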

The nature of data set [2]: collision cross section (TWIMS, N2) of ion [M-H]-; higher = larger gas-phase ion cross section. To be noted: ionization: ESI negative; LC: HILIC, pH 9.0 ammonium acetate. As to the method: as §1
A short description of data set [3]: collision cross section (TWIMS, N2) of ion [M+H]+; higher = larger gas-phase ion cross section. The note with it: ionization: ESI positive; LC: HILIC, pH 3.0 ammonium formate. As to the method:
as §1

Where [4] appears, read: ionization: ESI negative, pH 9.0 ammonium acetate.
[5] abbreviates: ionization: ESI positive, pH 3.0 ammonium formate.

As to `Oc1ncnc2nc[nH]c12` [Hypoxanthine], the entries for the “retention time on BEH HILIC column” value in data set [1] (setting [4]) and in data set [1] (setting [5]) were 2.31 min and 2.28 min, respectively. Also, the collision cross section was 121.62 Å² in data set [2] and 125.05 Å² in data set [3].

As to `N[C@@H](CCC(=O)N[C@@H](CSSC[C@H](NC(=O)CC[C@H](N)C(=O)O)C(=O)NCC(=O)O)C(=O)NCC(=O)O)C(=O)O` [Oxidized glutathione], the entries for the “retention time on BEH HILIC column” value in data set [1] (setting [4]) and in data set [1] (setting [5]) were 12.5 min and 12.6 min, respectively. Also, the collision cross section in data set [2] was determined as 216.04 Å²; in data set [3], 226.92 Å².

With `Cc1cc2nc3c(=O)[nH]c(=O)nc-3n(C[C@H](O)[C@H](O)[C@H](O)COP(=O)(O)OP(=O)(O)OC[C@H]3O[C@@H](n4cnc5c(N)ncnc54)[C@H](O)[C@@H]3O)c2cc1C` [FAD], the figures for the “retention time on BEH HILIC column” value in data set [1] (setting [4]) and in data set [1] (setting [5]) were 10.6 min and 10.5 min, respectively. Also, the collision cross section stood at 243.71 Å² in data set [2] and 250.07 Å² in data set [3].

As to `N[C@@H](Cc1ccccc1)C(=O)O` [L-phenylalanine], the “retention time on BEH HILIC column” value is 6.02 min in data set [1] (setting [4]) and 5.92 min in data set [1] (setting [5]). Moreover, the figures for the collision cross section in data set [2] and in data set [3] were 138.51 Å² and 137.14 Å², respectively.

With `O=C1O[C@H]([C@@H](O)CO)C(O)=C1O` [Ascorbic acid], the “retention time on BEH HILIC column” value in data set [1] (setting [4]) amounted to 1.17 min; in data set [1] (setting [5]), 0.72 min. For the same molecule, the results for the collision cross section in data set [2] and in data set [3] were 122.95 Å² and 134.39 Å², respectively.

With `Nc1ncnc2c1ncn2[C@@H]1O[C@H](CO)[C@@H](O)[C@H]1O` [Adenosine], the entries for the “retention time on BEH HILIC column” value in data set [1] (setting [4]) and in data set [1] (setting [5]) were 2.36 min and 2.24 min, respectively. The collision cross section in data set [2] stood at 155.95 Å²; in data set [3] it was 155.89 Å².

In the case of `N[C@@H](CSSC[C@H](N)C(=O)O)C(=O)O` [L-cystine], the “retention time on BEH HILIC column” value amounted to 12 min in data set [1] (setting [4]) and 11.4 min in data set [1] (setting [5]). The collision cross section in data set [2] worked out at 143.16 Å²; in data set [3], 146.43 Å².

`N[C@@H](Cc1cnc[nH]1)C(=O)O` [L-histidine]: the “retention time on BEH HILIC column” value is 12.7 min in data set [1] (setting [4]) and 12.6 min in data set [1] (setting [5]). The collision cross section in data set [2] came out at 129.28 Å²; in data set [3], 131.08 Å².

Take `N[C@@H](CCSC[C@H](N)C(=O)O)C(=O)O` [L-cystathionine]: the “retention time on BEH HILIC column” value was found to be 11.2 min in data set [1] (setting [4]) and 11.3 min in data set [1] (setting [5]). Besides, the collision cross section is 142.48 Å² in data set [2] and 144 Å² in data set [3].

For `Nc1ncnc2c1ncn2[C@@H]1O[C@H](COP(=O)(O)O)[C@@H](O)[C@H]1O` [AMP], the “retention time on BEH HILIC column” value in data set [1] (setting [4]) is 12 min; in data set [1] (setting [5]) it was 9.15 min. Also, the collision cross section is 175.53 Å² in data set [2] and 167.89 Å² in data set [3].

With `O=C(O)Cc1c[nH]c2ccccc12` [Indoleacetic acid], the entries for the “retention time on BEH HILIC column” value in data set [1] (setting [4]) and in data set [1] (setting [5]) were 0.88 min and 0.9 min, respectively. Further, the collision cross section in data set [2] stood at 141.98 Å²; in data set [3], 137.05 Å².

Consider `NC(=O)NCCC[C@H](N)C(=O)O` [Citrulline], for which the “retention time on BEH HILIC column” value in data set [1] (setting [4]) stood at 9.07 min; in data set [1] (setting [5]) it was 8.89 min. Further, the collision cross section in data set [2] is 135.18 Å²; in data set [3], 137.33 Å².

Turning to `CCC(C)CCC(=O)O` (stereo not drawn) [4-methylhexanoic acid], the “retention time on BEH HILIC column” value in data set [1] (setting [4]) was determined as 0.88 min; in data set [1] (setting [5]), 0.99 min. Further, the collision cross section in data set [2] is 134.11 Å²; in data set [3] it was 137.57 Å².

Take `CC(C)(COP(=O)(O)OP(=O)(O)OC[C@H]1O[C@@H](n2cnc3c(N)ncnc32)[C@H](O)[C@@H]1OP(=O)(O)O)[C@@H](O)C(=O)NCCC(=O)NCCSC(=O)CCC(=O)O` [Succinyl-CoA]: the “retention time on BEH HILIC column” value came to 12.3 min in data set [1] (setting [4]) and 13.5 min in data set [1] (setting [5]). The collision cross section in data set [2] was found to be 262.11 Å²; in data set [3], 260.23 Å².

Regarding `CC/C=C\C/C=C\C/C=C\C/C=C\C/C=C\CCCC(=O)O` [Eicosapentaenoic acid], the “retention time on BEH HILIC column” value is 0.72 min in data set [1] (setting [4]) and 0.75 min in data set [1] (setting [5]). Moreover, the figures for the collision cross section in data set [2] and in data set [3] were 190.11 Å² and 177.23 Å², respectively.

As to `Nc1ncnc2c1ncn2[C@@H]1O[C@@H]2COP(=O)(O)O[C@H]2[C@H]1O` [cAMP], the “retention time on BEH HILIC column” value in data set [1] (setting [4]) stood at 6.8 min; in data set [1] (setting [5]), 6.85 min. The collision cross section in data set [2] was 171.56 Å²; in data set [3], 174.12 Å².

Consider `CC(C)[C@H](N)C(=O)O` [L-valine], for which the “retention time on BEH HILIC column” value in data set [1] (setting [4]) was 6.85 min; in data set [1] (setting [5]), 6.79 min. Besides, the collision cross section turned out to be 126.43 Å² in data set [2] and 123.49 Å² in data set [3].

Regarding `Nc1ccccc1C(=O)O` [2-aminobenzoic acid], the “retention time on BEH HILIC column” value in data set [1] (setting [4]) came to 0.97 min; in data set [1] (setting [5]) it was 0.82 min. Moreover, the values for the collision cross section in data set [2] and in data set [3] were 126.13 Å² and 124.05 Å², respectively.

In the case of `Nc1c(C(=O)O)c2nc3c(C(=O)O)cccc3oc-2cc1=O` [Cinnavalininate], the “retention time on BEH HILIC column” value in data set [1] (setting [4]) is 2.92 min; in data set [1] (setting [5]), 2.66 min. For the same molecule, the figures for the collision cross section in data set [2] and in data set [3] were 156.31 Å² and 156.61 Å², respectively.

Turning to `O=C(O)c1cc(=O)c2ccccc2[nH]1` [Kynurenic acid], the “retention time on BEH HILIC column” value was determined as 4.13 min in data set [1] (setting [4]) and 4.01 min in data set [1] (setting [5]). The collision cross section in data set [2] amounted to 134.49 Å²; in data set [3], 135.88 Å².

For the molecule `Cc1cc2nc3c(=O)[nH]c(=O)nc-3n(C[C@H](O)[C@H](O)[C@H](O)CO)c2cc1C` [Riboflavin], the “retention time on BEH HILIC column” value in data set [1] (setting [4]) is 3.11 min; in data set [1] (setting [5]) it was 5.57 min. For the same molecule, the collision cross section in data set [2] was 184.43 Å²; in data set [3], 182.66 Å².

As to `O=c1ccn([C@@H]2O[C@H](CO)[C@@H](O)[C@H]2O)c(=O)[nH]1` [Uridine], the “retention time on BEH HILIC column” value in data set [1] (setting [4]) and in data set [1] (setting [5]) was 1.47 min each time. The collision cross section in data set [2] is on record as 153.03 Å²; in data set [3], 146.3 Å².

With `N[C@@H](Cc1c[nH]c2ccccc12)C(=O)O` [L-tryptophan], the “retention time on BEH HILIC column” value in data set [1] (setting [4]) was 5.86 min; in data set [1] (setting [5]), 5.77 min. Besides, the results for the collision cross section in data set [2] and in data set [3] were 148.33 Å² and 147.76 Å², respectively.

Take `CC(=O)SCCNC(=O)CCNC(=O)[C@H](O)C(C)(C)COP(=O)(O)OP(=O)(O)OC[C@H]1O[C@@H](n2cnc3c(N)ncnc32)[C@H](O)[C@@H]1OP(=O)(O)O` [Acetyl-CoA]: the “retention time on BEH HILIC column” value in data set [1] (setting [4]) was 11.8 min; in data set [1] (setting [5]), 12 min. The collision cross section is reported as 256.25 Å² in data set [2] and 248.16 Å² in data set [3].

Turning to `NCCc1ccc(O)c(O)c1` [Dopamine], the “retention time on BEH HILIC column” value was found to be 4.35 min in data set [1] (setting [4]) and 4.6 min in data set [1] (setting [5]). Further, the results for the collision cross section in data set [2] and in data set [3] were 130.85 Å² and 139.55 Å², respectively.

As for `C=C1CC[C@H](O)C/C1=C/C=C1\CCC[C@]2(C)[C@@H]([C@H](C)CCCC(C)C)CC[C@@H]12` [Vitamin D3], the “retention time on BEH HILIC column” value in data set [1] (setting [4]) was found to be 17.5 min; in data set [1] (setting [5]), 0.73 min. Also, the collision cross section in data set [2] was found to be 201.16 Å²; in data set [3], 206.18 Å².

For `O=C(O)c1cc(O)c2cccc(O)c2n1` [Xanthurenic acid], the entries for the “retention time on BEH HILIC column” value in data set [1] (setting [4]) and in data set [1] (setting [5]) were 4.65 min and 4.47 min, respectively. Besides, the collision cross section is 136.52 Å² in data set [2] and 136.81 Å² in data set [3].

For the molecule `Cc1c(C)c2c(c(C)c1O)CC[C@@](C)(CCC[C@H](C)CCC[C@H](C)CCCC(C)C)O2` [a-tocopherol], the “retention time on BEH HILIC column” value in data set [1] (setting [4]) and in data set [1] (setting [5]) was 0.73 min throughout. For the same molecule, the collision cross section was determined as 212.59 Å² in data set [2] and 216.53 Å² in data set [3].

As to `CC[C@H](C)[C@H](N)C(=O)O` [L-isoleucine], the entries for the “retention time on BEH HILIC column” value in data set [1] (setting [4]) and in data set [1] (setting [5]) were 6.68 min and 6.47 min, respectively. Further, the collision cross section in data set [2] is reported as 129.46 Å²; in data set [3] it was 133.13 Å².

As to `N=C(N)NCCC[C@H](N)C(=O)O` [L-arginine], the “retention time on BEH HILIC column” value in data set [1] (setting [4]) amounted to 11.1 min; in data set [1] (setting [5]), 10.8 min. Moreover, the collision cross section in data set [2] came to 136.62 Å²; in data set [3], 136.63 Å².

For the molecule `CCCCCCC(=O)OC` [Methyl heptanoate], the “retention time on BEH HILIC column” value in data set [1] (setting [4]) came out at 1.13 min; in data set [1] (setting [5]), 0.84 min. Also, the collision cross section in data set [2] came out at 137.2 Å²; in data set [3], 137.86 Å².

Regarding `O=C(O)CCCC[C@@H]1SC[C@@H]2NC(=O)N[C@@H]21` [Biotin], the figures for the “retention time on BEH HILIC column” value in data set [1] (setting [4]) and in data set [1] (setting [5]) were 1.78 min and 1.88 min, respectively. Also, the collision cross section in data set [2] came out at 153.03 Å²; in data set [3] it was 148.62 Å².

Values taken from the supplement of paper PMC11127212.
